According to ChEMBL document CHEMBL1201862, “PubChem BioAssay data set” (2004):
The source made the active and inactive calls.

How the values were obtained:
[1] = molecular target: T1, Type-1 angiotensin II receptor (Homo sapiens, UniProt P30556); experiment: AT1 receptor agonists, dose response, selectivity assay for APJ receptor agonist project, cell-based, uHTS hits (AID 488865); assay type: functional;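 further: beta-arrestin recruitment to AT1 measured by enzyme fragment complementation luminescence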
T1 sequence (P30556 whole entry): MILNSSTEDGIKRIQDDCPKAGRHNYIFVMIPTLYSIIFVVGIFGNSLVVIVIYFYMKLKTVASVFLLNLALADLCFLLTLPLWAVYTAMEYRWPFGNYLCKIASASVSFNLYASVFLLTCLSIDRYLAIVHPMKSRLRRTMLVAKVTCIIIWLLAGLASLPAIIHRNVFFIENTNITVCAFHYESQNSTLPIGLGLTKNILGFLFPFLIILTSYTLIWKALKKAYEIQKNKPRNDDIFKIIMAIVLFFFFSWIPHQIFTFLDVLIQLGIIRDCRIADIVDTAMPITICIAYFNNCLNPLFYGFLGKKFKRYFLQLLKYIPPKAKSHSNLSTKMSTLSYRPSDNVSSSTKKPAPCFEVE

Vero = experiment: cells; assay type: functional; conditions: Chlorocebus sabaeus
[2] = molecular target: T2, Delta-type opioid receptor (Homo sapiens, UniProt P41143); experiment: HTS Image-Based Screen for Antagonists of the DOR Receptor. [Related pubchem assays (depositor defined):AID1777, AID1785, AID1786, AID2133]; assay type: functional
T2 sequence (P41143 whole entry): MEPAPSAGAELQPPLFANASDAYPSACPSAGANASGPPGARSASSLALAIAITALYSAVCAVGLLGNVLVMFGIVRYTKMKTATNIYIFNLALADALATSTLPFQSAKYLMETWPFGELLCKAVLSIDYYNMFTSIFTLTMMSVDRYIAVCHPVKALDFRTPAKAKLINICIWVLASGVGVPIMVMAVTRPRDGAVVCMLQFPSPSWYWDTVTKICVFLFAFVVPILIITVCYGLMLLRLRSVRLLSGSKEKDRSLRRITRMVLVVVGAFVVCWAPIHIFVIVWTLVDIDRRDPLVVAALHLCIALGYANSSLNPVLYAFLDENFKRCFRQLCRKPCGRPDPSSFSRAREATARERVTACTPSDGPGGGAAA

Mu-type opioid receptor [3] = molecular target: T3, Mu-type opioid receptor (Homo sapiens, UniProt P35372); experiment: HTS Image-Based Screen for Agonists of the MOR Receptor. [Related pubchem assays (depositor defined):AID1777, AID1785, AID1786, AID2133]; assay type: functional
T3 sequence (P35372 whole entry): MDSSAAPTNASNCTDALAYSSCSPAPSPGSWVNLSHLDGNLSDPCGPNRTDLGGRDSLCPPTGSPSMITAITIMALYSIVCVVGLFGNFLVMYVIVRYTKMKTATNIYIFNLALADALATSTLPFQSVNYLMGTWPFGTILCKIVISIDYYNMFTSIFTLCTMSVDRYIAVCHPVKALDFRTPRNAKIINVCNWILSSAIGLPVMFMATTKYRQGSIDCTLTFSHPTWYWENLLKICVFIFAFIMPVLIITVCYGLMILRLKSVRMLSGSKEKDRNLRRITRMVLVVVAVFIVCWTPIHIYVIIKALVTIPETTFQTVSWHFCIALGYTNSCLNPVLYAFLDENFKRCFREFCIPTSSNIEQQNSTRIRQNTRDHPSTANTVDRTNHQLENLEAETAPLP

[4] = molecular target: T2, Delta-type opioid receptor; experiment: HTS Image-Based Screen for Agonists of the DOR Receptor. [Related pubchem assays (depositor defined):AID1777, AID1786, AID2133]; assay type: functional
[5] = molecular target: T4, Kappa-type opioid receptor (Homo sapiens, UniProt P41145); assay type: functional
T4 sequence (P41145 whole entry): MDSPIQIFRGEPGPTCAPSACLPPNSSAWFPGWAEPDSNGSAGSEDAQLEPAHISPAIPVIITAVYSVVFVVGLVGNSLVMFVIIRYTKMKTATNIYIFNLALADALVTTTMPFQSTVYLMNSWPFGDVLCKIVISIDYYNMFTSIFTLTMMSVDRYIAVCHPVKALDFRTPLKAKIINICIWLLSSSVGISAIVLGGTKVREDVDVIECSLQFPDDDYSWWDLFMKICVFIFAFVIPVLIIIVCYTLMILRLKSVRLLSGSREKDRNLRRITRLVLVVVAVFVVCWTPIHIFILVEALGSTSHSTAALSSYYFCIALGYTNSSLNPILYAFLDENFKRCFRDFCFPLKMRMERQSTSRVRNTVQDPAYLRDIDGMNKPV

[6] = molecular target: T4, Kappa-type opioid receptor; assay type: functional; remark: listed apart in the source
[7] = molecular target: T4, Kappa-type opioid receptor; experiment: SAR analysis of small molecule agonists of the kappa opioid receptor via a luminescent beta-arrestin assay. [Related pubchem assays (depositor defined):AID1777, AID1786, AID1966, AID2133, AID2136, AID2348, AID2352, AID2357, AID2359, AID2370, AID2420, AID2478, AID2491, AID2492, AID2493, AID2497, AID2498, AID2500, AID449737, AID488822, AID488842]; assay type: functional
Mu-type opioid receptor [8] = molecular target: T3, Mu-type opioid receptor; experiment: MOR agonists by imaging, SAR follow-up, image-based (AID 2352); assay type: functional
[9] = molecular target: T2, Delta-type opioid receptor; experiment: DOR agonists, SAR follow-up, image-based (AID 2370); assay type: functional
[10] = molecular target: T4, Kappa-type opioid receptor; experiment: KOR antagonists by imaging, SAR follow-up, image-based (AID 2348); assay type: functional
Mu-type opioid receptor [11] = molecular target: T3, Mu-type opioid receptor; experiment: MOR antagonists, SAR follow-up, image-based (AID 2420); assay type: functional;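 further: compounds added before stimulation of receptor with agonist DAMGO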
[12] = molecular target: T4, Kappa-type opioid receptor; experiment: KOR agonist analogs, imaging readout, SAR follow-up, image-based (AID 2359); assay type: functional
[13] = molecular target: T2, Delta-type opioid receptor; experiment: DOR antagonists, SAR follow-up, image-based (AID 2357); assay type: functional
[14] = molecular target: T5, Voltage-gated N-type calcium channel alpha-1B subunit/Amyloid beta A4 precursor protein-binding family A member 1 (Homo sapiens, UniProt Q00975+Q02410); assay type: protein assay
[15] = molecular target: T5, Voltage-gated N-type calcium channel alpha-1B subunit/Amyloid beta A4 precursor protein-binding family A member 1; assay type: protein assay; remark: listed apart in the source
Cannabinoid receptor 2 [16] = molecular target: T6, Cannabinoid receptor 2 (Homo sapiens, UniProt P34972); experiment: SAR analysis of antagonists of the Cannabinoid Receptor 2 using an Image-Based Assay - Set 2. [Related pubchem assays (depositor defined):AID1961, AID1965]; assay type: functional
T6 sequence (P34972 whole entry): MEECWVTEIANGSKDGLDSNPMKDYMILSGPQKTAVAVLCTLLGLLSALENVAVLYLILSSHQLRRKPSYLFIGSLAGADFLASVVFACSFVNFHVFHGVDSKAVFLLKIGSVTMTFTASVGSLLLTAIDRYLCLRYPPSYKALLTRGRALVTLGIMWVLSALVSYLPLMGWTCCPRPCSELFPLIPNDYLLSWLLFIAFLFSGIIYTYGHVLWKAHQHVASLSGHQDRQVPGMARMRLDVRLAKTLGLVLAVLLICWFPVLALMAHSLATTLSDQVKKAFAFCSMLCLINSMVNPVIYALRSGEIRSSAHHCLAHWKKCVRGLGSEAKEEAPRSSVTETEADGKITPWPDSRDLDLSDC

[17] = molecular target: G-protein coupled receptor 55 (Homo sapiens, UniProt Q9Y2T6); experiment: SAR analysis of selective Agonists of GPR55 using an Image-Based Assay - Set 2. [Related pubchem assays (depositor defined):AID1961, AID1965]; assay type: functional
Sequence of G-protein coupled receptor 55 (Q9Y2T6 whole entry): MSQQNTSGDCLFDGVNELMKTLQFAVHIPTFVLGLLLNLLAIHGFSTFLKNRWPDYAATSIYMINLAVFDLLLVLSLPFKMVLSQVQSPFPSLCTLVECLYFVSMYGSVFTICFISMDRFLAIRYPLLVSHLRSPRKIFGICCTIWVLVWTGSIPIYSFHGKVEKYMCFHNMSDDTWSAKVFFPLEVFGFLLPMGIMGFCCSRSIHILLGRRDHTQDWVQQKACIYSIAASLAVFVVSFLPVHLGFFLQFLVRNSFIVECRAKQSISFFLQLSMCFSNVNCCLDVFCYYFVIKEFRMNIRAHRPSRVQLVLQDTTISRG

Cannabinoid receptor 2 [18] = molecular target: T6, Cannabinoid receptor 2; experiment: SAR analysis of agonists of the Cannabinoid Receptor 2 using an Image-Based Assay - Set 2. [Related pubchem assays (depositor defined):AID1961, AID1965]; assay type: functional
[19] = molecular target: T7, G-protein coupled receptor 35 (Homo sapiens, UniProt Q9HC97); experiment: SAR analysis of Agonists of the GPR35 Receptor using an Image-Based Assay - Set 3. [Related pubchem assays (depositor defined):AID1961, AID1965]; assay type: functional
T7 sequence (Q9HC97 whole entry): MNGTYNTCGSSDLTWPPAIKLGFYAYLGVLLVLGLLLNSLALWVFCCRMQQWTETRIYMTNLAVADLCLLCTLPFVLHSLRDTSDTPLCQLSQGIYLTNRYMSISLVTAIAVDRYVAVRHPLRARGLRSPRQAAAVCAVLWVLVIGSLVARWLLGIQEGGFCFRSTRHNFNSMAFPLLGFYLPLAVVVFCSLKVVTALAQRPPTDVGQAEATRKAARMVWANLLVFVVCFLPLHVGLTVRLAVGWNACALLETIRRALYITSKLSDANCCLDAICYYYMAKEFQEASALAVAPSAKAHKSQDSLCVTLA

Cannabinoid receptor 1 [20] = molecular target: T8, Cannabinoid receptor 1 (Homo sapiens, UniProt P21554); experiment: SAR analysis of antagonists of the Cannabinoid Receptor 1 using an Image-Based Assay - Set 3. [Related pubchem assays (depositor defined):AID1961, AID1965]; assay type: functional
T8 sequence (P21554 whole entry): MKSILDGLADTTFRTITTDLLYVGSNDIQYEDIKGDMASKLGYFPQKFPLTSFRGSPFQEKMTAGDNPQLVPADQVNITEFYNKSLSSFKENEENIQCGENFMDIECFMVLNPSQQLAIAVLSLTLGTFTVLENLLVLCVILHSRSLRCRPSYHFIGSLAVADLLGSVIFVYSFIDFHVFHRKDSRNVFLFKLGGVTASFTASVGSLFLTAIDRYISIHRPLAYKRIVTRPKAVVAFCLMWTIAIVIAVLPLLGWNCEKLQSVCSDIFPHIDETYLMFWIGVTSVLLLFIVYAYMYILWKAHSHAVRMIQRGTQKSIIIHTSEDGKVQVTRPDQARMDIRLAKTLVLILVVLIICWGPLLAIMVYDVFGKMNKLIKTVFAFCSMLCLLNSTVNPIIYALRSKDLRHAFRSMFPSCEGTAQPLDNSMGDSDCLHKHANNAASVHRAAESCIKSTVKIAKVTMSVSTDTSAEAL

Cannabinoid receptor 1 [21] = molecular target: T8, Cannabinoid receptor 1; experiment: SAR analysis of agonists of the Cannabinoid Receptor 1 using an Image-Based Assay - Set 3. [Related pubchem assays (depositor defined):AID1961, AID1965]; assay type: functional
[22] = molecular target: T7, G-protein coupled receptor 35; experiment: SAR analysis of Antagonists of the GPR35 Receptor using an Image-Based Assay - Set 4. [Related pubchem assays (depositor defined):[…]]; assay type: functional
Phosphomannomutase 2 = Phosphomannomutase 2 (Homo sapiens, UniProt O15305); experiment: Counter screen SAR assay for PMM2 inhibitors via a fluorescence intensity assay. [Related pubchem assays (depositor defined):AID1545, AID1574]
Sequence of Phosphomannomutase 2 (O15305 whole entry): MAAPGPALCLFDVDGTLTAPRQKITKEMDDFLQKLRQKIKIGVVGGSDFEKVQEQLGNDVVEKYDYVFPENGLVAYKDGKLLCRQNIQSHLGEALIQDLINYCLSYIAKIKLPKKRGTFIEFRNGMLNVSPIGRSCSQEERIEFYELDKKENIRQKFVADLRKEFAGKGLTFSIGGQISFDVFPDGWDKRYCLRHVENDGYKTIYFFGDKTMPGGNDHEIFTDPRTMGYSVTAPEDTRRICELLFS

With `CCN(CC)CCNC(=O)c1cc(-c2cccnc2)nc2ccc(S(=O)(=O)N3CCC(C)CC3)cc12` the EC50 [1] was > 100 µM (inactive) and the CC50 (Vero) was 9.06 µM (active).
With `O=C(c1ccccn1)N(Cc1ccco1)C1(C(=O)NC2CCCCC2)CCCCC1` the IC50 [2] was > 32 µM (inactive), the EC50 (Mu-type opioid receptor [3]) was > 32 µM (inactive) and the EC50 [4] was > 32 µM (inactive). For the same compound, the EC50 [5] was under 0.5 µM, the EC50 [6] was 0.22 µM and the EC50 [7] was 0.821 µM (active). The EC50 (Mu-type opioid receptor [8]) was > 32 µM (inactive), the EC50 [9] was > 32 µM (inactive) and the IC50 [10] was > 32 µM (inactive). The IC50 (Mu-type opioid receptor [11]) was > 32 µM (inactive), the EC50 [12] was 0.125 µM (active) and the IC50 [13] was > 32 µM (inactive).
`O=C(O)Cc1sc(Nc2ccc(F)cc2)nc1-c1cccs1` was tested, and the IC50 [14] was 9.21 µM (active) and the IC50 [15] was > 50 µM (inactive).
With `Cc1cc2cc3c(cc2n2c(SCC(=O)Nc4nc(-c5ccccc5)cs4)nnc12)OCCO3` the IC50 (Cannabinoid receptor 2 [16]) was > 32 µM (inactive), the EC50 [17] was 4.42 µM (active) and the EC50 (Cannabinoid receptor 2 [18]) was > 32 µM (inactive). The EC50 [19] was > 32 µM (inactive), the IC50 (Cannabinoid receptor 1 [20]) was 12.7 µM (inactive) and the EC50 (Cannabinoid receptor 1 [21]) was > 32 µM (inactive). For the same compound, the IC50 [22] was > 32 µM (inactive).
`O=c1c2ccccc2sn1-c1cccc(I)c1` was tested, and the IC50 (Phosphomannomutase 2) was > 100 µM (inactive).
